Experiments:
[1] = Three-month room temperature storage of aqueous CHG / cationic dye solutions (Examples 7, 8); format: physicochemical; conditions: 2.0% w/v CHG and 0.05% w/v dye in water
Procedure: The chemical structure and chemical category of each of these dyes are presented below. Crystal violet, malachite green, and Victoria pure blue BO all belong to the same chemical family, triarylmethane. Bismark brown and acriflavine each belong to a different chemical family, azo and acridine, respectively. [drawing 3] [drawing 4]
Aqueous solutions of 2.0% w/v CHG and 0.05% w/v dye were prepared for each of the dyes indicated above to test the stability of the solutions. Each aqueous solution was prepared using a Class A 100 ml volumetric flask, in which 0.050 grams of dye were dissolved in 30.0 ml of distilled water. Additionally, 10.6 g of 20% w/v aqueous CHG solution was added to the flask. The solution was then brought up to volume with distilled water. The solutions were stored for three months at room temperatures.
In particular, the dye tested was azure C, which is a cationic dye that belongs to the thiazin family. Its positive charge comes from a tertiary sulfur atom instead of a quaternary nitrogen atom. The chemical structure and chemical category of azure C is presented below. [drawing 5]
An aqueous solution of 2.0% w/v CHG and 0.05% w/v azure C dye was prepared to test the stability of the solution. The solution was prepared similar to the preparation of the solutions in Example 7. […]

[2] = Compatibility of an anionic dye alone with an aqueous CHG solution (Example 1); format: physicochemical; conditions: 0.13% w/v dye in distilled water, no cationic excipient; after two drops
Procedure: The compatibility of an anionic dye alone with an aqueous chlorhexidine gluconate (CHG) solution (i.e., without the addition of a cationic excipient) was tested. A 0.13% w/v anionic dye solution was prepared by dissolving 0.13 g FD&C Yellow 6 in 100 ml of distilled water. A 20% w/v aqueous CHG solution was then added drop wise to the dye solution.

| precipitate on drop wise addition of 20% w/v aqueous CHG solution to the dye solution [2] | Structure (SMILES) | time solution stable and dye compatible ([1]; room temperature) | visible precipitate ([1]; stored three months at room temperature) |
| --- | --- | --- | --- |
| – | CNc1ccc2nc3ccc(N)cc3[s+]c2c1.[Cl-] [azure C] | at least three months | no visible precipitate |
| precipitate was formed | O=S(=O)([O-])c1ccc(N=Nc2c(O)ccc3cc(S(=O)(=O)[O-])ccc23)cc1.[Na+].[Na+] [FD&C Yellow 6, FD&C Yellow No. 6 (Sunset Yellow FCF)] | – | – |

— patent US20080108674A1, “CATIONIC ANTISEPTIC AND DYE FORMULATION” (ENTURIA, INC., priority 2006, published 2008)
